According to article PMC5524191 (ACS chemical biology, 2016):

Target: 20S proteasome (Homo sapiens, UniProt P28072+P28074+Q99436)
Assay: activation of Ac-Arg-Leu-Arg-AMC hydrolysis
Format: biochemical
Conditions: activator, trypsin-like activity

Row | Structure (SMILES) | fold activation
1 | C=C(CC)C(=O)c1ccc(OCC(=O)NCCCCCCNC(=O)CNC(=O)OC(C)(C)C)c(Cl)c1Cl [compound 5, EA-B1G] | Activation of the trypsin-like subunits was also observed with EA-B1G and EA-B2O
2 | C=C(CC)C(=O)c1ccc(OCC(=O)NCCCCCCNC(=O)[C@H](CCCNC(=O)OC(C)(C)C)NC(=O)OC(C)(C)C)c(Cl)c1Cl [compound 4, EA-B2O] | Activation of the trypsin-like subunits was also observed with EA-B1G and EA-B2O
